Source: patent US20070031907A1, “Anaplastic lymphoma kinase assay, reagents and compositions thereof” (Istituto Nazionale Per Lo Studio E La Cura Dei Tumori, priority 2003, published 2007)

Biological target: T1, purified rALK (Homo sapiens, UniProt Q9UM73)
T1 construct: A portion of ALK, stretching from amino acids Leu^1073 to Ala^1459, has been cloned into the baculovirus transfer vector; made in house; host or cells: Sf9 (Spodoptera frugiperda) insect cells, baculovirus (pBlueBacHis2C, MaxBac 2.0)
T1 sequence (Q9UM73 1073-1459): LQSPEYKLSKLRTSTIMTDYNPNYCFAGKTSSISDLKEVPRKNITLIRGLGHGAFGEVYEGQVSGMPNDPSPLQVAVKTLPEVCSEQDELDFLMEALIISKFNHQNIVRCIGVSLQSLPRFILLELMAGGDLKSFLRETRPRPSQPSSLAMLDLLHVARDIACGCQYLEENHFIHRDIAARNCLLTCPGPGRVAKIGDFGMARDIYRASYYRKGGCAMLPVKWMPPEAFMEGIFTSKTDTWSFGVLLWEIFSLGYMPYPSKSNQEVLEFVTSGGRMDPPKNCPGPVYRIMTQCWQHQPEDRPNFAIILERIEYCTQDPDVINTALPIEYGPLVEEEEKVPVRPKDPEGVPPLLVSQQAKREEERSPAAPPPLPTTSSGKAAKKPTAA
Assay: ELISA-based in vitro kinase assay
Assay type: biochemical
Protocol: ELISA-based in vitro Kinase Assay A Nunc Immuno 96 well plate was incubated overnight at 37° C. with coating solution (125 μl/well) containing ALK peptide substrate (SEQ ID N. 1 or SEQ ID N. 2) at various concentrations in PBS. The wells were then washed with 200 μl of wash buffer (PBS-Tween 0.05%) and left to dry for at least 2 hours at 37° C. […] The reaction mix was then removed and wells were washed 5 times with 200 μl of wash buffer. Phosphorylated peptide was detected using 100 μl/well of a mouse monoclonal anti-phosphotyrosine antibody (clone 4G10 UpstateBiotech Ltd) diluted 1:500 in PBS+4% BSA. After 30 minutes incubation at room temperature the antibody was removed and wells were washed as described above. 100 μl of a secondary antibody (anti-mouse IgG, Horseradish Peroxidase linked whole antibody, from sheep, Amersham Pharmacia Biotech) diluted 1:1000 in PBS+4% BSA was added to each well and the plate was incubated again for 30 minutes at room temperature before washing as above. The plate was developed using 100 μl/well TMB Substrate Solution (Endogen) and the reaction was stopped by adding an equal volume of H2SO4 0.18 M. Finally, the absorbance was read at 450 or 490 nm using an Ultrospec® 300 spectrophotometer (Amersham-Pharmacia Biotech).

SMILES: CN[C@@H]1C[C@H]2O[C@@](C)([C@@H]1OC)n1c3ccccc3c3c4c(c5c6ccccc6n2c5c31)C(=O)NC4 [Staurosporine]
- concentration reaching maximum inhibition of rALK activity (42 μM peptide substrate, 20 ng rALK, 30° C., 15 mins): 1 µM
- concentration at which effective as an ALK inhibitor (positive control for screening): 0.2 to 0.3 µM
